Like-named read-outs stand apart in the source and are kept apart here. Bounds are passed on as bounds.

The values below come from US20260035364A1, “BICYCLIC TETRAHYDROTHIAZEPINE DERIVATIVES” (Hoffmann-La Roche Inc., priority 2022, published 2026).

The test system of experiment [1] is primary human T-cells. In words: T-cell proliferation assay (CellTiter-Glo). Type of experiment: cell-based. As to conditions: CD3 condition; for Emax / Emax proliferation (% activation): 5 days, 20 μM reference compound A1 = 100%; for Emax: read-out: Emax proliferation (% activation); for EC50: proliferation after 5 days, CellTiter-Glo, read-out: Tcell Proliferation CD3 EC50. The method in brief:
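Expanded primary human T-cells (100k/well) on plates coated with CD3 antibody or PBS only, given a 5- or 6-point dose response (top 20 or 10 μM final, 3.333-fold steps, 0.2% DMSO). ATP measured by CellTiter-Glo 2.0 luminescence after 5 days. Normalized to DMSO and 20 μM reference A1 (100%); EC50 and Emax reported for CD3 conditions.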
(In general: Cellular ATP, detected with luciferase, serves as a proxy for viable cell number.)

Experiment [2] has as its target DGKalpha (Homo sapiens, UniProt P23743). In words: In vitro DGK inhibition assay (ADP-Glo, liposomes), DGKalpha. It is filed as biochemical. More on the design: hDGKalpha(1-735)-N-His; His (N); made in house; host or cells: Sf21 insect cells (baculovirus). As to conditions: 4 nM DGK α, 25 μM ATP, 125 uM DLG in liposomes, 1 hour reaction. In short, it runs like this: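 Full-length human DGKα (4 nM) or DGKζ (2 nM) from Sf21 cells, with DLG substrate at 125 uM in PS/PC liposomes and ATP at 25 μM (α) or 50 μM (ζ); 1 h reaction. ADP formed read by ADP-Glo luminescence; compounds 11-point, 1:3 dilutions from 10 mM, 2% DMSO final.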
A general note: ADP-Glo turns the ADP formed in a reaction into a luminescent signal.

For experiment [3], the target named is DGKzeta (Homo sapiens, UniProt Q13574). In words: In vitro DGK inhibition assay (ADP-Glo, liposomes), DGKzeta. Type of experiment: biochemical. More on the design: hDGKzeta(1-928)-N-His; His (N); made in house; host or cells: Sf21 insect cells (baculovirus). As to conditions: 2 nM DGK ζ, 50 μM ATP, 125 uM DLG in liposomes, 1 hour reaction. The method in brief:
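DGKζ (2 nM) phosphorylated DLG presented in DLG/PS/PC liposomes (final DLG 125 μM) with 50 μM ATP for 1 hour. ADP formed was read by ADP-Glo luminescence. Compounds were tested as 11-point 1:3 dose responses in 2% final DMSO.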

Sequence of DGKalpha (P23743 whole entry): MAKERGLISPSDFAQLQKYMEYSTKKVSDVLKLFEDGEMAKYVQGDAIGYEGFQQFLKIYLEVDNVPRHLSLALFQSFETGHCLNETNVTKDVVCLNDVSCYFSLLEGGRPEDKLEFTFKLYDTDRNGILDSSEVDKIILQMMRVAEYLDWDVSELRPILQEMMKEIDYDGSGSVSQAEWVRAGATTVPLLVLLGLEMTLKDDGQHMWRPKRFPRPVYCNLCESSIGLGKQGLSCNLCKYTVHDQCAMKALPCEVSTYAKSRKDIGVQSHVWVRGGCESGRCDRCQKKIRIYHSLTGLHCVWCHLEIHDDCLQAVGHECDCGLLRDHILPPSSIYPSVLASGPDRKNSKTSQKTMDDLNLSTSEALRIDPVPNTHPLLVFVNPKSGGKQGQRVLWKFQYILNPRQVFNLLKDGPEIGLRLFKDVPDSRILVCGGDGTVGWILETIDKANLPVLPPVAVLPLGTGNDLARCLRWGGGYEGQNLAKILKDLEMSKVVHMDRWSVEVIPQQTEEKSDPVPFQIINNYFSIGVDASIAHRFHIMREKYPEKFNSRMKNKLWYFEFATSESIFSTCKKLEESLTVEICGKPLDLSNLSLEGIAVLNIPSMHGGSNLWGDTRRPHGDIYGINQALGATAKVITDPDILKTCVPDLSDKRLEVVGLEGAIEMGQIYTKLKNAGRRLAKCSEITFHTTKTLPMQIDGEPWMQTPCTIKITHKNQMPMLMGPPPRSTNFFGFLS
Sequence of DGKzeta (Q13574 whole entry): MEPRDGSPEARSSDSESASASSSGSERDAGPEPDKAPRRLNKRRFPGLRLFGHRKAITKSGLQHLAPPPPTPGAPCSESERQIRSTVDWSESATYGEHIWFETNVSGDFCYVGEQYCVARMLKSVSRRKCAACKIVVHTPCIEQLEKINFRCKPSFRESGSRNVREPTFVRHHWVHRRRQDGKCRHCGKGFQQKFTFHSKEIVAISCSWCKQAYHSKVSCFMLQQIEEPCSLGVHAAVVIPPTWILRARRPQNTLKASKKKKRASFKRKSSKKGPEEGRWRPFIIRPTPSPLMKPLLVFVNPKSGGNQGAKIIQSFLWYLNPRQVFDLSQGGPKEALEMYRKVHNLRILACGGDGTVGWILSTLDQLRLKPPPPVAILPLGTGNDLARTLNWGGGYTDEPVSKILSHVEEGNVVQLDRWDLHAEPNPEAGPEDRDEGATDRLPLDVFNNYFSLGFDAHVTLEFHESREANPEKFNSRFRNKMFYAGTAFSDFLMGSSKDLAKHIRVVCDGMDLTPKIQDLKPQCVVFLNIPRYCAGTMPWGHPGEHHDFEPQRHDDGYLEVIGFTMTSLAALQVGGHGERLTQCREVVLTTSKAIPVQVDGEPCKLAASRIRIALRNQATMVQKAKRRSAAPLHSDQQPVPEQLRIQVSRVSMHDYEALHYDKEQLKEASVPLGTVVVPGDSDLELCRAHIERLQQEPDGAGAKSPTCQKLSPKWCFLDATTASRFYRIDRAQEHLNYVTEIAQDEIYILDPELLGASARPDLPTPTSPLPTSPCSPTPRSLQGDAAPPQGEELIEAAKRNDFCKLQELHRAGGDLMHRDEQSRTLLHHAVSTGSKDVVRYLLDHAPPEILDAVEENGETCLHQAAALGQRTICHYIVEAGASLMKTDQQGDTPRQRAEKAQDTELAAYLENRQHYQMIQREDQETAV

For the compound `COc1cc(Cl)cc(Oc2ccc(CN3C(=O)[C@@H](N)CS(=O)(=O)c4ccc(-c5nnc(C(C)(C)S(C)(=O)=O)o5)cc43)cc2)c1` [Example 41, (3R)-3-amino-5-[[4-(3-chloro-5-methoxy-phenoxy)phenyl]methyl]-7-[5-(1-methyl-1-methylsulfonyl-ethyl)-1,3,4-oxadiazol-2-yl]-1,1-dioxo-2,3-dihydro-1λ6,5-benzothiazepin-4-one], in experiment [1] (Homo sapiens, T-cell, 120 h), the Emax was 97% and the EC50 came out at 1710 nM. In addition, the IC50 (in general, the concentration that inhibits the measured activity by half) in experiment [2] is 41000 nM. Besides, the IC50 in experiment [3] is 2290 nM.

For the compound `COc1cccc(Oc2ccc(CN3C(=O)[C@@H](N)CS(=O)(=O)c4ccc(-c5nnc(C(C)(C)S(C)(=O)=O)o5)cc43)cc2)c1` [Example 42], in experiment [1] (Homo sapiens, T-cell, 120 h), the Emax is 205% and the EC50 amounted to 674 nM. In experiment [2], this compound displayed an IC50 of 1160 nM. This compound gave an IC50 in experiment [3] of 413 nM.

Consider `CC(C)(c1nc(-c2cc3c(cc2F)S(=O)(=O)C[C@H](N)C(=O)N3Cc2ccc(Cl)cc2)no1)S(C)(=O)=O` [Example 43, (3R)-3-amino-5-[(4-chlorophenyl)methyl]-8-fluoro-7-[5-(1-methyl-1-methylsulfonyl-ethyl)-1,2,4-oxadiazol-3-yl]-1,1-dioxo-2,3-dihydro-1λ6,5-benzothiazepin-4-one], for which, in experiment [1] (Homo sapiens, T-cell, 120 h), the Emax amounted to 153% and the EC50 amounted to 75 nM. For the same compound, inhibition in experiment [2] was half-maximal at 640 nM (IC50). This compound also displayed an IC50 in experiment [3] of 192 nM.

`CC(C)(c1nc(-c2cc3c(cc2F)S(=O)(=O)C[C@H](N)C(=O)N3Cc2ccc(OC(F)(F)F)cc2)no1)S(C)(=O)=O` [Example 44, (3R)-3-amino-8-fluoro-7-[5-(1-methyl-1-methylsulfonyl-ethyl)-1,2,4-oxadiazol-3-yl]-1,1-dioxo-5-[[4-(trifluoromethoxy)phenyl]methyl]-2,3-dihydro-1λ6,5-benzothiazepin-4-one]: in experiment [1] (Homo sapiens, T-cell, 120 h), the Emax was 251% and the EC50 worked out at 208 nM. For the same compound, the midpoint of inhibition in experiment [2], the IC50, lay at 683 nM. This compound also displayed an IC50 in experiment [3] of 317 nM.

As for `CC(C)(c1nc(-c2cc3c(cc2F)S(=O)(=O)C[C@H](N)C(=O)N3Cc2ccc(-c3noc(C4CC4)n3)cc2)no1)S(C)(=O)=O` [Example 45, (3R)-3-amino-5-[[4-(5-cyclopropyl-1,2,4-oxadiazol-3-yl)phenyl]methyl]-8-fluoro-7-[5-(1-methyl-1-methylsulfonyl-ethyl)-1,2,4-oxadiazol-3-yl]-1,1-dioxo-2,3-dihydro-1λ6,5-benzothiazepin-4-one], in experiment [1] (Homo sapiens, T-cell, 120 h), the Emax amounted to 260% and the EC50 worked out at 235 nM. This compound also had an IC50 in experiment [2] of 818 nM. The compound also registered an IC50 in experiment [3] of 98 nM.

With `CC(C)(c1nc(-c2cc3c(cc2F)S(=O)(=O)C[C@H](N)C(=O)N3Cc2ccc(-c3noc(C(F)(F)F)n3)cc2)no1)S(C)(=O)=O` [Example 46, (3R)-3-amino-8-fluoro-7-[5-(1-methyl-1-methylsulfonyl-ethyl)-1,2,4-oxadiazol-3-yl]-1,1-dioxo-5-[[4-[5-(trifluoromethyl)-1,2,4-oxadiazol-3-yl]phenyl]methyl]-2,3-dihydro-1λ6,5-benzothiazepin-4-one], in experiment [1] (Homo sapiens, T-cell, 120 h), the Emax is 185% and the EC50 turned out to be 135 nM. Also, in experiment [2], the midpoint of inhibition, the IC50, lay at 1100 nM. For the same compound, in experiment [3], inhibition was half-maximal at 256 nM (IC50).

On to `CC(C)(c1nnc(-c2ccc3c(c2)N(Cc2ccc(Oc4cccc(OC(F)F)c4)cc2)C(=O)[C@@H](N)CS3(=O)=O)o1)S(C)(=O)=O` [Example 47, (3R)-3-amino-5-[[4-[3-(difluoromethoxy)phenoxy]phenyl]methyl]-7-[5-(1-methyl-1-methylsulfonyl-ethyl)-1,3,4-oxadiazol-2-yl]-1,1-dioxo-2,3-dihydro-1λ6,5-benzothiazepin-4-one], for which the Emax in experiment [1] (Homo sapiens, T-cell, 120 h) stood at 156%. Also, the EC50 in experiment [1] (Homo sapiens, T-cell, 120 h) turned out to be 351 nM. Besides, the IC50 in experiment [2] amounted to 1100 nM; in experiment [3], 468 nM.

As to `CC(C)(c1nc(-c2cc3c(cc2F)S(=O)(=O)C[C@H](N)C(=O)N3Cc2ccc(Oc3ccccc3)nc2)no1)S(C)(=O)=O` [Example 48, (3R)-3-amino-8-fluoro-7-[5-(1-methyl-1l-methylsulfonyl-ethyl)-1,2,4-oxadiazol-3-yl]-1,1-dioxo-5-[(6-phenoxy-3-pyridyl)methyl]-2,3-dihydro-1 λ6,5-benzothiazepin-4-one], in experiment [1] (Homo sapiens, T-cell, 120 h), the Emax was found to be 252% and the EC50 was 296 nM. This compound also yielded an IC50 in experiment [2] of 1960 nM. The IC50 in experiment [3] stood at 630 nM.

With `COc1ccc(-c2ccc(CN3C(=O)[C@@H](N)CS(=O)(=O)c4ccc(-c5nnc(C(C)(C)S(C)(=O)=O)o5)cc43)cc2)c(C)c1` [Example 49, (3R)-3-amino-5-[[4-(4-methoxy-2-methyl-phenyl)phenyl]methyl]-7-[5-(1-methyl-1-methylsulfonyl-ethyl)-1,3,4-oxadiazol-2-yl]-1,1-dioxo-2,3-dihydro-1λ6,5-benzothiazepin-4-one], the Emax in experiment [1] (Homo sapiens, T-cell, 120 h) was 111%. In experiment [1] (Homo sapiens, T-cell, 120 h), the EC50 worked out at 3130 nM. In addition, the IC50 in experiment [2] turned out to be 11100 nM; in experiment [3], 1460 nM.

Regarding `COc1ccc(-c2ccc(CN3C(=O)[C@@H](N)CS(=O)(=O)c4cc(F)c(-c5noc(C(C)(C)S(C)(=O)=O)n5)cc43)cc2)cc1` [Example 50, (3R)-3-amino-8-fluoro-5-[[4-(4-methoxyphenyl)phenyl]methyl]-7-[5-(1-methyl-1-methylsulfonyl-ethyl)-1,2,4-oxadiazol-3-yl]-1,1-dioxo-2,3-dihydro-1λ6,5-benzothiazepin-4-one], in experiment [1] (Homo sapiens, T-cell, 120 h), the Emax worked out at 293% and the EC50 is 757 nM. The same compound showed a half-maximal inhibitory concentration (IC50) in experiment [2] of 2110 nM. Besides, the midpoint of inhibition in experiment [3], the IC50, lay at 377 nM.

Consider `CC(C)(c1nc(-c2cc3c(cc2F)[S+]([O-])C[C@H](N)C(=O)N3Cc2ccc(Oc3ccccc3)cc2)no1)S(C)(=O)=O` (stereo partly drawn) [Example 51, (3R)-3-amino-8-fluoro-7-[5-(1-methyl-1-methylsulfonyl-ethyl)-1,2,4-oxadiazol-3-yl]-1-oxo-5-[(4-phenoxyphenyl)methyl]-2,3-dihydro-1λ4,5-benzothiazepin-4-one], for which, in experiment [1], the “Emax proliferation (% activation)” value was 67% and the EC50 is more than 10000 nM. This compound also returned an IC50 in experiment [2] of 2290 nM. Moreover, the IC50 in experiment [3] amounted to 371 nM.

In the case of `CC(C)(c1nc(-c2cc3c(cc2F)[S+]([O-])C[C@H](N)C(=O)N3Cc2ccc(Oc3ccccc3)cc2)no1)S(C)(=O)=O` (stereo partly drawn) [Example 52, (3R)-3-amino-8-fluoro-7-[5-(1-methyl-1-methylsulfonyl-ethyl)-1,2,4-oxadiazol-3-yl]-1-oxo-5-[(4-phenoxyphenyl)methyl]-2,3-dihydro-1λ4,5-benzothiazepin-4-one], in experiment [1], the “Emax proliferation (% activation)” value was determined as 181%. In experiment [1], the EC50 came out at 978 nM. Also, the values for the IC50 in experiment [2] and in experiment [3] were 1550 nM and 419 nM, respectively.

Turning to `CS(=O)(=O)Cn1nnc(-c2cc3c(cc2F)S(=O)(=O)C[C@H](N)C(=O)N3Cc2ccc(Oc3ccccc3)cc2)n1` [Example 54, (3R)-3-amino-8-fluoro-7-[2-(methylsulfonylmethyl)tetrazol-5-yl]-1,1-dioxo-5-[(4-phenoxyphenyl)methyl]-2,3-dihydro-1λ6,5-benzothiazepin-4-one], in experiment [1] (Homo sapiens, T-cell, 120 h), the Emax was 310% and the EC50 stood at 1540 nM. This compound also came in with an IC50 in experiment [2] of 1170 nM. Moreover, inhibition in experiment [3] was half-maximal at 603 nM (IC50).

Regarding `CS(=O)(=O)Cn1nnnc1-c1cc2c(cc1F)S(=O)(=O)C[C@H](N)C(=O)N2Cc1ccc(Oc2ccccc2)cc1` [Example 55, (3R)-3-amino-8-fluoro-7-[1-(methylsulfonyl-methyl)tetrazol-5-yl]-1,1-dioxo-5-[(4-phenoxyphenyl)methyl]-2,3-dihydro-1λ6,5-benzothiazepin-4-one], the Emax in experiment [1] (Homo sapiens, T-cell, 120 h) was 310%. Further, in experiment [1] (Homo sapiens, T-cell, 120 h), the EC50 was found to be 1150 nM. The IC50 in experiment [2] came to 18300 nM; in experiment [3] it was 6640 nM.

On to `CC(C)(c1nnc(-c2ccc3c(c2)N(Cc2ccc(-c4ccc(C(F)(F)F)cc4)cc2)C(=O)[C@@H](N)CS3(=O)=O)o1)S(C)(=O)=O` [Example 56, (3R)-3-amino-7-[5-(1-methyl-1-methylsulfonyl-ethyl)-1,3,4-oxadiazol-2-yl]-1,1-dioxo-5-[[4-[4-(trifluoromethyl)phenyl]phenyl]methyl]-2,3-dihydro-1λ6,5-benzothiazepin-4-one], for which, in experiment [1] (Homo sapiens, T-cell, 120 h), the Emax came to 137% and the EC50 came out at 636 nM. Besides, the IC50 in experiment [2] was found to be 10100 nM. This compound also came in with an IC50 in experiment [3] of 8880 nM.
